The test system of assay [1] is proinflammatory (M1) and anti-inflammatory (M2) markers in macrophages. The assay is described as follows: Ex vivo analysis of M1 and M2 markers in macrophages of EAE rats by realtime PCR. The note with it: splenic macrophages day 13 post MBP-immunization and CNS infiltrating macrophages. The arrangement: species or system rat. The method, then: Ex vivo analysis of proinflammatory (M1) and anti-inflammatory (M2) markers in control and compound treated EAE rats. Splenic macrophages were harvested at day 13 post MBP-immunization and assayed for expression of a variety of markers by realtime PCR. CNS infiltrating cells were harvested and macrophages were analyzed for expression of M1 and M2 markers by realtime PCR.

Assay [2] deals with EAE rats. The assay is described as follows: Rat experimental autoimmune encephalomyelitis (EAE) model, preventive treatment. It is filed as in vivo. The method, then:
A further study was carried out to study the impact of Lp-PLA2 inhibitors on modulating M1/M2 imbalance. In this study, rats were induced to develop experimental autoimmune encephalomyelitis (EAE) by immunization with myelin basic protein (MBP) antigen and treated with a known Lp-PLA2 inhibitor: 5-((9-Methoxy-4-oxo-6,7-dihydro-4H-pyrimido[6,1-a]isoquinolin-2-yl)oxy)-2-(3-(trifluoromethyl)phenoxy)benzonitrile (See PCT application no. PCT/CN2011/001597). In this preventive treatment model, the compound was administered at day 0 (day of immunization) and continued to administer until day 22. The study lasted for 25 days. Rats were subsequently monitored for symptoms of EAE. Rats were immunized with MBP to develop EAE and symptoms were monitored daily. Plasma Lp-PLA2 activity, O×LDL, and LysoPC concentration were determined at different time points through the course of EAE.

Turning to `COc1ccc2c(c1)CCn1c-2cc(Oc2ccc(Oc3cccc(C(F)(F)F)c3)c(C#N)c2)nc1=O` [5-((9-Methoxy-4-oxo-6,7-dihydro-4H-pyrimido[6,1-a]isoquinolin-2-yl)oxy)-2-(3-(trifluoromethyl)phenoxy)benzonitrile], in assay [1], the M1 markers expression entry was “decrease in M1 markers” and the M2 markers expression result is on record as “increase in M2 markers”. For the same compound, in assay [2] (rat EAE plasma), the “plasma Lp-PLA2 activity” value is listed as “decreased Lp-PLA2 activity” and the “plasma LysoPC levels” value is “decreased”. Moreover, the “clinical disease (EAE)” value in assay [2] (rat EAE, MBP immunization, administered day 0 until day 22) is recorded as “reduction in clinical disease”.

For the origin of these results see US9273054B2, “Substituted pyrimido[1,6-a]pyrimidines as Lp-PLA2 inhibitors” (Glaxo Group Limited, priority 2011, dated 2016).
